Laboratory results from patent US12509445B2, “Herbicidally active 4-cyclopropyl-6-[4-(trifluormethyl)pyrazol-1-yl)]pyrimidines” (Bayer Aktiengesellschaft, priority 2019, dated 2025).

Columns and labels:
Assay type in all cases: in vivo
[1] = test system: Veronica persica (VERPE); assay: Post-emergence herbicidal action; settings: 320 g/ha, visual rating after about 3 weeks vs untreated controls, 100% = plants have died
Method: (§1) Seeds of monocotyledonous and dicotyledonous weeds and crop plants are placed in sandy loam in plastic or organic plant pots, covered with soil and cultivated in a greenhouse under controlled growth conditions. 2 to 3 weeks after sowing, the test plants are treated at the one-leaf stage. The compounds of the invention, formulated in the form of wettable powders (WP) or as emulsion concentrates (EC), are then sprayed onto the green parts of the plants as aqueous suspension or emulsion with addition of 0.5% additive at a water application rate of 600 l/ha (converted). After the test plants have been kept in the greenhouse under optimum growth conditions for about 3 weeks, the activity of the preparations is rated visually in comparison to untreated controls. For example, 100% activity=the plants have died, 0% activity=like control plants.
(§2) The abbreviations used here have the following meanings: • ABUTH Abutilon theophrasti • AMARE Amaranlhus retroflexus • CYPES Cyperus serotinus • ECHCGEchinocloa crus galli • LOLRI Lolium rigidum Gaudin • PHBPU Pharbitis purpurcum • SETVI Setaria viridis • VERPE Veronica persica • ALOMY Alopccurus myosuroides • AVEFA Avena fatua • DIGSA Digitaria sanguinalis • LOLMU Lolium multiflorum • MATIN Matricaria inodora • POLCO Polygonum convolvulus • STEME Stellaria media • VIOTR Viola tricolor

[2] = test system: Amaranthus retroflexus (AMARE); assay: Post-emergence herbicidal action; settings: 320 g/ha, visual rating after about 3 weeks vs untreated controls, 100% = plants have died
Method: as §1, §2

[3] = test system: Viola tricolor (VIOTR); assay: Post-emergence herbicidal action; settings: 320 g/ha, visual rating after about 3 weeks vs untreated controls, 100% = plants have died
Method: as §1, §2

[4] = test system: Pharbitis purpurea (PHBPU); assay: Pre-emergence herbicidal action; settings: 320 g/ha, visual scoring after about 3 weeks vs untreated controls, 100% = plants have died
From the text: as §2
(§3) Seeds of monocotyledonous and dicotyledonous weed plants and crop plants are placed in plastic or organic plant pots and covered with soil. The compounds of the invention, formulated in the form of wettable powders (WP) or as emulsion concentrates (EC), are then applied onto the surface of the covering soil as aqueous suspension or emulsion with addition of 0.5% additive at a water application rate of 600 l/ha (converted). After the treatment, the pots are placed in a greenhouse and kept under good growth conditions for the trial plants. After about 3 weeks, the effect of the preparations is scored visually in comparison with untreated controls as percentages. For example, 100% activity=the plants have died, 0% activity=like control plants.

[5] = test system: Veronica persica (VERPE); assay: Pre-emergence herbicidal action; settings: 320 g/ha, visual scoring after about 3 weeks vs untreated controls, 100% = plants have died
From the text: as §2, §3

[6] = test system: Amaranthus retroflexus (AMARE); assay: Pre-emergence herbicidal action; settings: 320 g/ha, visual scoring after about 3 weeks vs untreated controls, 100% = plants have died
From the text: as §2, §3

[7] = test system: Echinochloa crus-galli (ECHCG); assay: Pre-emergence herbicidal action; settings: for Herbicidal action against ECHCG: 80 g of a.i./ha, comparative test
From the text: as §2, §3
(§4) The compounds according to the invention were tested by the post-emergence and pre-emergence methods under the conditions described above for comparative purposes with the structurally closest compounds known from WO 2005/089551 A1 (D1).

[8] = test system: Matricaria inodora (MATIN); assay: Pre-emergence herbicidal action; settings: for Herbicidal action against MATIN: 80 g of a.i./ha, comparative test; for Pre-emergence action MATIN: 320 g/ha, visual scoring after about 3 weeks vs untreated controls, 100% = plants have died
From the text: as §2, §3, §4

[9] = test system: Polygonum convolvulus (POLCO); assay: Pre-emergence herbicidal action; settings: for Herbicidal action against POLCO: 80 g of a.i./ha, comparative test
From the text: as §2, §3, §4

[10] = test system: Setaria viridis (SETVI); assay: Pre-emergence herbicidal action; settings: for Herbicidal action against SETVI: 80 g of a.i./ha, comparative test; for Pre-emergence action SETVI: 320 g/ha, visual scoring after about 3 weeks vs untreated controls, 100% = plants have died
From the text: as §2, §3, §4

[11] = test system: Alopecurus myosuroides (ALOMY); assay: Pre-emergence herbicidal action; settings: for Herbicidal action against ALOMY: 80 g of a.i./ha, comparative test; for Pre-emergence action ALOMY: 320 g/ha, visual scoring after about 3 weeks vs untreated controls, 100% = plants have died
From the text: as §2, §3, §4

[12] = test system: Stellaria media (STEME); assay: Pre-emergence herbicidal action; settings: for Pre-emergence action STEME: 320 g/ha, visual scoring after about 3 weeks vs untreated controls, 100% = plants have died
From the text: as §2, §3, §4

[13] = test system: Viola tricolor (VIOTR); assay: Pre-emergence herbicidal action; settings: for Herbicidal action against VIOTR: 80 g of a.i./ha, comparative test; for Pre-emergence action VIOTR: 320 g/ha, visual scoring after about 3 weeks vs untreated controls, 100% = plants have died
From the text: as §2, §3, §4

[14] = test system: Abutilon theophrasti (ABUTH); assay: Post-emergence herbicidal action; settings: 320 g/ha, visual rating after about 3 weeks vs untreated controls, 100% = plants have died
Method: as §1, §2, §4

[15] = test system: Echinochloa crus-galli (ECHCG); assay: Post-emergence herbicidal action; settings: for Post-emergence action ECHCG: 320 g/ha, visual rating after about 3 weeks vs untreated controls, 100% = plants have died
Method: as §1, §2, §4

[16] = test system: Matricaria inodora (MATIN); assay: Post-emergence herbicidal action
Method: as §1, §2, §4

[17] = test system: Avena fatua (AVEFA); assay: Post-emergence herbicidal action; settings: 320 g/ha, visual rating after about 3 weeks vs untreated controls, 100% = plants have died
Method: as §1, §2, §4

[18] = test system: Setaria viridis (SETVI); assay: Post-emergence herbicidal action; settings: for Post-emergence action SETVI: 320 g/ha, visual rating after about 3 weeks vs untreated controls, 100% = plants have died
Method: as §1, §2, §4

[19] = test system: Lolium multiflorum (LOLMU); assay: Post-emergence herbicidal action; settings: 320 g/ha, visual rating after about 3 weeks vs untreated controls, 100% = plants have died
Method: as §1, §2, §4

[20] = test system: Stellaria media (STEME); assay: Post-emergence herbicidal action; settings: 320 g/ha, visual rating after about 3 weeks vs untreated controls, 100% = plants have died
Method: as §1, §2, §4

[21] = test system: harmful plants such as Abutilon theophrasti, Alopecurus myosuroides, Amaranthus retroflexus, Avena fatua, Echinochloa crus-galli, Matricaria inodora, Pharbitis …; assay: Post-emergence herbicidal action, summary in text; settings: post-emergence treatment
Method: as §1
In this case, for example, in the post-emergence process, the compounds No. 1-001 and 111-001 have very good herbicidal activity (80% to 100% herbicidal action) against harmful plants such as Abutilon theophrasti, Alopecurus myosuroides, Amaranthus retroflexus, Avena fatua, Echinochloa crus-galli, Matricaria inodora, Pharbitis purpurea, Setaria viridis, Stellaria media, Veronica persica and Viola tricolor at an application rate of 0.32 kg of active substance or less per hectare. At the same time, some compounds according to the invention leave graminaceous crops such as barley, wheat, rye, millet/sorghum, maize, rice or sugarcane virtually undamaged when applied by the post-emergence method, even at high active compound dosages. Some substances are additionally also benign to dicotyledonous crops such as soya, cotton, oilseed rape or sugarbeet.

[22] = test system: Abutilon theophrasti (ABUTH); assay: Pre-emergence herbicidal action; settings: 320 g/ha, visual scoring after about 3 weeks vs untreated controls, 100% = plants have died
From the text: as §2, §3

[23] = test system: Lolium rigidum Gaudin (LOLRI); assay: Pre-emergence herbicidal action; settings: 320 g/ha, visual scoring after about 3 weeks vs untreated controls, 100% = plants have died
From the text: as §2, §3

[24] = test system: Digitaria sanguinalis (DIGSA); assay: Pre-emergence herbicidal action; settings: 320 g/ha, visual scoring after about 3 weeks vs untreated controls, 100% = plants have died
From the text: as §2, §3

[25] = test system: Alopecurus myosuroides (ALOMY); assay: Post-emergence herbicidal action
Method: as §1, §2, §4

[26] = 320 g/ha, visual scoring after about 3 weeks vs untreated controls, 100% = plants have died
[27] = 320 g/ha, visual rating after about 3 weeks vs untreated controls, 100% = plants have died
[28] = 80 g of a.i./ha, comparative test

SMILES | Post-emergence action VERPE [1] | Post-emergence action AMARE [2] | Post-emergence action VIOTR [3] | Pre-emergence action PHBPU [4] | Pre-emergence action VERPE [5] | Pre-emergence action AMARE [6] | Herbicidal action against ECHCG [7] | Herbicidal action against MATIN [8] | Pre-emergence action MATIN [8] | Herbicidal action against POLCO [9] | Herbicidal action against SETVI [10] | Pre-emergence action SETVI [10] | Herbicidal action against ALOMY [11] | Pre-emergence action ALOMY [11] | Pre-emergence action STEME [12] | Herbicidal action against VIOTR [13] | Pre-emergence action VIOTR [13] | Post-emergence action ECHCG [15] | Post-emergence action SETVI [18] | Post-emergence action STEME [20] | also measured
FC(F)(F)c1cccc(Oc2nc(C3CC3)cc(-n3cc(C(F)(F)F)cn3)n2)c1 [II-001] | 100% | 90% | 100% | 80% | 90% | 90% | 80% | 80% | 100% | 20% | 90% | 100% | 60% | 100% | 90% | 90% | 90% | 80% | 80% | 90% | Pre-emergence action ECHCG [7, 26]: 80%; Post-emergence action ABUTH [14]: 90%; Post-emergence action MATIN [16, 27]: 80%; Post-emergence action AVEFA [17]: 50%; Post-emergence action LOLMU [19]: 70%; herbicidal action against harmful plants (in words) [21]: good herbicidal action
FC(F)(F)Oc1cccc(Oc2nc(C3CC3)cc(-n3cc(C(F)(F)F)cn3)n2)c1 [II-004] | 90% | 90% | 90% | 80% | 100% | 100% | 30% | 80% | 100% | 50% | 100% | 100% | 70% | 90% | 100% | 100% | 100% | 90% | 90% | 80% | Pre-emergence action ABUTH [22]: 80%; Pre-emergence action LOLRI [23]: 90%; Pre-emergence action DIGSA [24]: 100%; Pre-emergence action POLCO [9, 26]: 90%; Herbicidal action against STEME [12, 28]: 70%; Herbicidal action against ECHCG [15, 28]: 40%; Herbicidal action against MATIN [16, 28]: 40%; Herbicidal action against SETVI [18, 28]: 50%; Herbicidal action against ALOMY [25, 28]: 50%; Post-emergence action ALOMY [25, 27]: 80%
